Source: paper PMC11219871, “Epigenetic-based differentiation therapy for Acute Myeloid Leukemia” (Nature Communications, 2024)

Key:
Assay in all cases: Epigenetic panel (BPS Bioscience)
Assay type in all cases: biochemical
JMJD1A = target: T1, JMJD1A (Homo sapiens, UniProt Q9Y4C1)
T1 construct: purchased BPS Bioscience; Eurofins (HDAC4, 5, 7-11)
Source text: (§1) The selectivity of CM-444 and CM-1758 against other epigenetic targets, including histone demethylase (JMJD2A, JMJD2B, JMJD2C, JMJD2D, JMJD2E, JMJD3, JMJD1A, LSD1, Jarid1A, Jarid1B, Jarid1C, FBXL10, FBXL11, JHDM1D, JMJD1B, PHF8, LSD2 and UTX); histone acetyltransferases (GCN5, P300); histone methyltransferases (G9a, GLP, MLL1, SET7/9, SUV39H1, SUV39H2, PRMT1, PRMT3, PRMT4, PRMT5, PRMT6, PRMT8, PRMT9, NSD1, NSD2, EZH1, EZH2, SETDB1, SETD2, SET8, SUV4-20H1, SMYD2, SMYD3, DOT1L, EZH2 (A677G), EZH2 (A677G), EZH2 (A738T), EZH2 (Y641S), EZH2 (P132S), EZH2 (Y641C), EZH2 (Y641F), EZH2 (Y641H), EZH2 (Y641N)); bromodomains (ATAD2B, ATAD2A, BRD1, BRD9, BPTF/FALZ, CeCR2, BRPF3, BRD3 (BD1 + BD2), BAZ2B, WDR9, TAF1 (BD2), TAF1L (BD2), TAF1L (BD1 + BD2), BRD2 (BD1), BRD2 (BD2), BRD2 (BD1 + BD2), BRD3 (BD1), BRD3 (BD2), BRD4 (BD1), BRD4 (BD2), BRD4 (BD1 + BD2), BRDT (BD1), BRDT (BD1 + BD2), CREBBP, SMARCA2A, SMARCA4/BRG1); DNA methyltranferases (DNMT1, DNMT3A/3L and DNMT3B/3L), and sirtuin histone deacetylases (SIRT1, SIRT2, SIRT3, SIRT5 and SIRT6), were determined by BPS Bioscience (http://www.bpsbioscience.com/index.ph). Binding experiments were performed in duplicate at a concentration of 10 μM.

EZH1 = target: T2, EZH1 (Homo sapiens, UniProt Q92800)
T2 construct: purchased BPS Bioscience; Eurofins (HDAC4, 5, 7-11)
Source text: as §1

P300 = target: T3, P300 (Homo sapiens, UniProt Q09472)
T3 construct: purchased BPS Bioscience; Eurofins (HDAC4, 5, 7-11)
Source text: as §1

PRMT9 = target: T4, PRMT9 (Homo sapiens, UniProt Q6P2P2); conditions: for inhibition at 10 µM: read-out: % of inhibition
T4 sequence (Q6P2P2 1-845): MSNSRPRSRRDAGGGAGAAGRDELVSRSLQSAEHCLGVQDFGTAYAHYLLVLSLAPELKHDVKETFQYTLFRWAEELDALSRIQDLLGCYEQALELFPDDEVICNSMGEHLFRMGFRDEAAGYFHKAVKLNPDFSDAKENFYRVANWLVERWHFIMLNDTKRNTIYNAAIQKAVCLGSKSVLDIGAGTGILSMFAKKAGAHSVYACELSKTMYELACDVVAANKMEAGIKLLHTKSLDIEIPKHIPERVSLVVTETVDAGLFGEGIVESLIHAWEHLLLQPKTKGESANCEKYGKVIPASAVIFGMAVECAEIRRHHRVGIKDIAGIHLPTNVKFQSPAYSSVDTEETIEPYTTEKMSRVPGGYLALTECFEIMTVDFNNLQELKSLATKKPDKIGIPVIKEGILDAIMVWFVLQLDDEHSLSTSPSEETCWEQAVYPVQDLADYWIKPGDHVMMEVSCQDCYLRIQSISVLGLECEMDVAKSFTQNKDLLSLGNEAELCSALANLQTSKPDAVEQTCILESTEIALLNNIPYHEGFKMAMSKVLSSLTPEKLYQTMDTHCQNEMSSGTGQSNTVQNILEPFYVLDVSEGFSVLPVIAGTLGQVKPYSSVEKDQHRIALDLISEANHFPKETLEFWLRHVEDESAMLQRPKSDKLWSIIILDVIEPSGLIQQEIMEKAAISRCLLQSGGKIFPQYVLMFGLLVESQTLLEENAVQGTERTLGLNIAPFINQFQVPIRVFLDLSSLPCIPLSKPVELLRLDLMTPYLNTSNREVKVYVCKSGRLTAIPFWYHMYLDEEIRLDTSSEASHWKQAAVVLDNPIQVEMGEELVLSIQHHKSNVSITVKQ
Source text: as §1

SIRT5 = target: T5, SIRT5 (Homo sapiens, UniProt Q9NXA8)
T5 construct: purchased BPS Bioscience; Eurofins (HDAC4, 5, 7-11)
Source text: as §1

NSD1 = target: T6, NSD1 (Homo sapiens, UniProt Q96L73)
T6 construct: purchased BPS Bioscience; Eurofins (HDAC4, 5, 7-11)
Source text: as §1

EZH2 (A738T) = target: T7, EZH2 (A738T) (Homo sapiens, UniProt Q15910)
T7 construct: purchased BPS Bioscience; Eurofins (HDAC4, 5, 7-11)
Source text: as §1

DOT1L = target: T8, DOT1L (Homo sapiens, UniProt Q8TEK3)
T8 construct: purchased BPS Bioscience; Eurofins (HDAC4, 5, 7-11)
Source text: as §1

EZH2 (Y641H) = target: T9, EZH2 (Y641H) (Homo sapiens, UniProt Q15910, Y641H)
T9 construct: purchased BPS Bioscience; Eurofins (HDAC4, 5, 7-11)
Source text: as §1

EZH2 (A677G) = target: T10, EZH2 (A677G) (Homo sapiens, UniProt Q15910, A677G)
T10 construct: purchased BPS Bioscience; Eurofins (HDAC4, 5, 7-11)
Source text: as §1

EZH2 (Y641C) = target: T11, EZH2 (Y641C) (Homo sapiens, UniProt Q15910, Y641C)
T11 construct: purchased BPS Bioscience; Eurofins (HDAC4, 5, 7-11)
Source text: as §1

T3 sequence (Q09472 whole entry): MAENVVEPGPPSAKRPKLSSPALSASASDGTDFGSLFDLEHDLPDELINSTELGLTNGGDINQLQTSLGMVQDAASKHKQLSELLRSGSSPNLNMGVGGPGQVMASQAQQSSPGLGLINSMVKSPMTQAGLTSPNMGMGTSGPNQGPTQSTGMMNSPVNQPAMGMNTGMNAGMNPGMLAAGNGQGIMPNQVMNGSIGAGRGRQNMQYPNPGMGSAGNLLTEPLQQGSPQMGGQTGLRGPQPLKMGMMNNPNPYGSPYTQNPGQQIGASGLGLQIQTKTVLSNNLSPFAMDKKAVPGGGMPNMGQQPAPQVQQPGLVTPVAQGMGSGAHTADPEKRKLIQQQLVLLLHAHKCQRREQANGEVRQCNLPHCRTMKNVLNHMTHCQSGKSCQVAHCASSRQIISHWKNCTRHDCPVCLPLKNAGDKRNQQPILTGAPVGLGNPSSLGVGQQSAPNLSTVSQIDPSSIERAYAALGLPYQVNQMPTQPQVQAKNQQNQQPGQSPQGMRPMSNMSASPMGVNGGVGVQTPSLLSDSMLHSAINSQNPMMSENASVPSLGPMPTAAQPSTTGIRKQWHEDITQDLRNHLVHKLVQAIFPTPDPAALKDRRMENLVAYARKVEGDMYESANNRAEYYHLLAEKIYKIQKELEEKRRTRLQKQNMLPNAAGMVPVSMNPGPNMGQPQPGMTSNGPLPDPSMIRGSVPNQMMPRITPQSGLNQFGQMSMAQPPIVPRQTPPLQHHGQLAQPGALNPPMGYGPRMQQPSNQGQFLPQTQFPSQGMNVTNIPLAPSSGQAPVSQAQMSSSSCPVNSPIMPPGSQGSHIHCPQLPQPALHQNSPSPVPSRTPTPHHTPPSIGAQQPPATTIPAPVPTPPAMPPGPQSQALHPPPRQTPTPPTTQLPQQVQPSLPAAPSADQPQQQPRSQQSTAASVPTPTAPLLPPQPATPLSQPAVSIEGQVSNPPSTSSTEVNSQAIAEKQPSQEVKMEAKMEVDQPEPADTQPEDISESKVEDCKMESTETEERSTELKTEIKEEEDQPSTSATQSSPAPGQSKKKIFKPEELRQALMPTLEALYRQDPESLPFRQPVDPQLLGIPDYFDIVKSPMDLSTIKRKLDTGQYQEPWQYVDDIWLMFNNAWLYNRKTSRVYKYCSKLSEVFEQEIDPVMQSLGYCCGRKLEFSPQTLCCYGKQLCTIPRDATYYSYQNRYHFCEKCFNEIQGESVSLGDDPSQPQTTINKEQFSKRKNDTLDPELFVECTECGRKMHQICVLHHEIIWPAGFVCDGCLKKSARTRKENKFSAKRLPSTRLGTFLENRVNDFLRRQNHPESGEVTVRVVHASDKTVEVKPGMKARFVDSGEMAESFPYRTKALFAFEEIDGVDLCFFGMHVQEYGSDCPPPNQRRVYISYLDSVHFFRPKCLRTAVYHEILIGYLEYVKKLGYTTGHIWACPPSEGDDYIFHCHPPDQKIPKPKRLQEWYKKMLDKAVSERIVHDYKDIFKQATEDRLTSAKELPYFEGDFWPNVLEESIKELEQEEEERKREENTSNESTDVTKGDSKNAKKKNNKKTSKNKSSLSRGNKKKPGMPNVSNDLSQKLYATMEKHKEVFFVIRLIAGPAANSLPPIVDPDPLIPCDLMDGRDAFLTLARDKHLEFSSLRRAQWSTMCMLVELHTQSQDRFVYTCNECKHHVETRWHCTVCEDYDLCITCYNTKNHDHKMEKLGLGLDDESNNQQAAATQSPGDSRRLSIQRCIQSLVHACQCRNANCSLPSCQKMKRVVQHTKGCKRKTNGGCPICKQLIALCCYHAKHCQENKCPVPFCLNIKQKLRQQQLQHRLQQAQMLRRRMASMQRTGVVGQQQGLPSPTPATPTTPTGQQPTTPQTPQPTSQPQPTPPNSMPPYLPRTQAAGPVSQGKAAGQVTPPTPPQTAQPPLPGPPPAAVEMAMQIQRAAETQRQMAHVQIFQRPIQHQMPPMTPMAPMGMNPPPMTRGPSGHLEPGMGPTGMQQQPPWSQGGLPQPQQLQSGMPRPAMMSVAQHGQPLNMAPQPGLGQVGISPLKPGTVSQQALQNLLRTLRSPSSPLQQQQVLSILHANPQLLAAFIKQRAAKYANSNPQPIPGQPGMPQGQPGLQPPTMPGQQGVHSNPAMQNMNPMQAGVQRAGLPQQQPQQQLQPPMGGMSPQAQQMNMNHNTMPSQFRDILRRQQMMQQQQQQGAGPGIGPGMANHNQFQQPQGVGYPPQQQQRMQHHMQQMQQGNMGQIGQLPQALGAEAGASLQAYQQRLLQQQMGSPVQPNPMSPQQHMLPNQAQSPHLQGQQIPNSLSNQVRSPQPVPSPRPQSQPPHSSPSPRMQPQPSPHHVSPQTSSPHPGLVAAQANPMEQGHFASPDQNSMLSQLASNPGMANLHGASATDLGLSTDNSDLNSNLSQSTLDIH
T1 sequence (Q9Y4C1 whole entry): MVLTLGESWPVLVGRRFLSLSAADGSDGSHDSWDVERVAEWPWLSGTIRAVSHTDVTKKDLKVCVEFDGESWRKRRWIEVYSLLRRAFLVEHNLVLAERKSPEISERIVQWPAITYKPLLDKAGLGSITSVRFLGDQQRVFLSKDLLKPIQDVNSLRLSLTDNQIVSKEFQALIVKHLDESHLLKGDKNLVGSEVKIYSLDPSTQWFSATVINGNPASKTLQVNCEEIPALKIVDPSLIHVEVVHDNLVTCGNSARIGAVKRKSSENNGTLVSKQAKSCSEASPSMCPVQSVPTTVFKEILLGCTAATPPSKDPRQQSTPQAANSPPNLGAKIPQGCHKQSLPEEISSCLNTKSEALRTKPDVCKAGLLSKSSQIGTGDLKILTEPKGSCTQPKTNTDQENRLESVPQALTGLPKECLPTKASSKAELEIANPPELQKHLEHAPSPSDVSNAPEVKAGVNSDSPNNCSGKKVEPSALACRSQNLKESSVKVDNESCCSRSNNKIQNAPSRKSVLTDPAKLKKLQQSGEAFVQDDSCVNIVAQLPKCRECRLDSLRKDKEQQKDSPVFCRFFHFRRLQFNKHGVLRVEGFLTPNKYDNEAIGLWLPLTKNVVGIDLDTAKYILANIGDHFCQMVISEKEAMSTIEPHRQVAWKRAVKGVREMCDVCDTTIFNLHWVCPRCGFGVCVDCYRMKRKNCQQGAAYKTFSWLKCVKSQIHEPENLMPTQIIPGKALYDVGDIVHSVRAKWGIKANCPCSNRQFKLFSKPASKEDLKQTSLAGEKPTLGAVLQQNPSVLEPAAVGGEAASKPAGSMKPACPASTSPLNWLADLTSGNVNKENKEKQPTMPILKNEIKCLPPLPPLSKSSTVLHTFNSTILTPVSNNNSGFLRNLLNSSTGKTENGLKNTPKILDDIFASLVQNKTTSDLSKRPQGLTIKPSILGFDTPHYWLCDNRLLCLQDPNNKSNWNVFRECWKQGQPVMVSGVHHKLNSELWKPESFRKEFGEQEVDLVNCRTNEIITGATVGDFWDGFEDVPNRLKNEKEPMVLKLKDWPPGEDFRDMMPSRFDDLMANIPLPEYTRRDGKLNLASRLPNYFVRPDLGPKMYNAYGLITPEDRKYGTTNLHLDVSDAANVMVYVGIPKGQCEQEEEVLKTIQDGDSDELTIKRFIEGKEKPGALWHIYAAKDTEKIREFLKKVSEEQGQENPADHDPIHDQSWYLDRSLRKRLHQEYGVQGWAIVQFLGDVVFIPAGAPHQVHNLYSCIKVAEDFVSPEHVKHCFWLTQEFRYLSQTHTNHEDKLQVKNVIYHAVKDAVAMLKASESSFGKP
T5 sequence (Q9NXA8 37-310): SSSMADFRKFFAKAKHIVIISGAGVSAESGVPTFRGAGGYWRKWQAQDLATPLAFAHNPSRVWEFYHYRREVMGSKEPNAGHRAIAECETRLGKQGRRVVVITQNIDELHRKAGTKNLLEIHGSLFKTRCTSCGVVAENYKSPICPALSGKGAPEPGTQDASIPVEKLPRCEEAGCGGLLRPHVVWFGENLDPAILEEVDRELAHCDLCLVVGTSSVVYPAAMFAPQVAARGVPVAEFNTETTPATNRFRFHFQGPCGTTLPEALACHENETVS

## COc1cc2nc(-c3ccc(C)o3)cc(NCC3CCN(c4ncc(C(=O)NO)cn4)CC3)c2cc1OC [CM-444, 2-[4-[[[6,7-dimethoxy-2-(5-methyl-2-furyl)-4-quinolyl]amino]methyl]-1-piperidyl]pyrimidine-5-carbohydroxamic acid]
JMJD1A
  inhibition at 10 µM: 3%
EZH1
  inhibition at 10 µM: 9%
P300
  inhibition at 10 µM: 10%
PRMT9
  IC50: 19.2 µM
  inhibition at 10 µM: 76%
SIRT5
  inhibition at 10 µM: 7%
NSD1
  inhibition at 10 µM: 14%
EZH2 (A738T)
  inhibition at 10 µM: 5%
DOT1L
  inhibition at 10 µM: 0%
EZH2 (Y641H)
  inhibition at 10 µM: 0%
EZH2 (A677G)
  inhibition at 10 µM: 0%
EZH2 (Y641C)
  inhibition at 10 µM: 4%

## COc1cc2nc(-c3cc(C)oc3C)cc(NCC3CCN(c4ncc(C(=O)NO)cn4)CC3)c2cc1OC [CM-1758, 2-[4-[[[2-(2,5-dimethyl-3-furyl)-6,7-dimethoxy-4-quinolyl]amino]methyl] -1-piperidyl]pyrimidine-5-carbohydroxamic acid]
JMJD1A
  inhibition at 10 µM: 12%
EZH1
  inhibition at 10 µM: 0%
P300
  inhibition at 10 µM: 0%
PRMT9
  IC50: 22.7 µM
  inhibition at 10 µM: 52%
SIRT5
  inhibition at 10 µM: 2%
NSD1
  inhibition at 10 µM: 10%
EZH2 (A738T)
  inhibition at 10 µM: 5%
DOT1L
  inhibition at 10 µM: 0%
EZH2 (Y641H)
  inhibition at 10 µM: 0%
EZH2 (A677G)
  inhibition at 10 µM: 5%
EZH2 (Y641C)
  inhibition at 10 µM: 0%
